Assays:
high-fat diet (HFD) mice [1] = assay: Insulin tolerance test in HFD mice after 3 months of supplementation; assay type: in vivo; conditions: 90 minutes after subcutaneous insulin 0.4 U/kg, FIG. 1d
Method: (§1) The high-fat diet (HFD, containing 60% fat by energy) mice at 8 weeks of age were divided into three groups: (1) non-supplement group (Con, n=5); (2) DHB supplement group (DHB, 100 mg/kg, n=5); […] VB12=100 mg/kg: 200 mg/kg, n=5). All mice were administered these things before each major meal for once daily (2 g/kg body weight) by gavage in normal saline solution for 3 months. Blood samples were collected from tail tips in a fasting state to measure serum VB 12, serum homocysteine, glucose, and serum holo-transcobalamin II (holo-TCII, a biologically active fraction for TCII receptors synthesis) and weighed the mice for 0th, 2th, 4th, 6th, 8th, 10th and 12th week. After 3 months of supplementation, glycated hemoglobin (HbA1c) was measured. Also, the insulin tolerance test was performed after 3 months of supplementation after subcutaneous injection of insulin (0.4 U/kg, 0.05 ml/10 g body weight) for 0, 30, 90 minutes. […] Elevated homocysteine was defined as > 15 µM/L. Vitamin B12 levels and holo-TCII were measured by using immunoassay analyzer to confirm the improvement in TCII receptors synthesis and VB12 levels. Serum homocysteine levels were measured using the chemiluminescent microparticle immunoassay to show the VB12 levels. HbA1c was determined with automated glycohemoglobin analyzer, which can indicate the effect of blood glucose control during the trial. […]

high-fat diet (HFD) mice [2] = assay: Serum VB12 level in HFD mice (immunoassay analyzer); conditions: mouse, in vivo
Method: The high-fat diet (HFD, containing 60% fat by energy) mice at 8 weeks of age were divided into three groups: (1) non-supplement group (Con, n=5); (2) DHB supplement group (DHB, 100 mg/kg, n=5); (3) the combination of DHB and VB12 supplement group (DHB+VB12, DHB: VB12=100 mg/kg: 200 mg/kg, n=5). All mice were administered these things before each major meal for once daily (2 g/kg body weight) by gavage in normal saline solution for 3 months.
Blood samples were collected from tail tips in a fasting state to measure serum VB 12, serum homocysteine, glucose, and serum holo-transcobalamin II (holo-TCII, a biologically active fraction for TCII receptors synthesis) and weighed the mice for 0th, 2th, 4th, 6th, 8th, 10th and 12th week. After 3 months of supplementation, glycated hemoglobin (HbA1c) was measured. […] Elevated homocysteine was defined as > 15 µM/L. Vitamin B12 levels and holo-TCII were measured by using immunoassay analyzer to confirm the improvement in TCII receptors synthesis and VB12 levels. Serum homocysteine levels were measured using the chemiluminescent microparticle immunoassay to show the VB12 levels. HbA1c was determined with automated glycohemoglobin analyzer, which can indicate the effect of blood glucose control during the trial. […]

high-fat diet (HFD) mice [3] = assay: Glycated hemoglobin (HbA1c) in HFD mice after 3 months of supplementation; assay type: in vivo; conditions: after three months of supplementation, FIG. 1e
Method: as §1

high-fat diet (HFD) mice [4] = assay: Fasting blood glucose in HFD mice during 3 months of supplementation; assay type: in vivo; conditions: after three months (12th week), gavage once daily, FIG. 1a
Method: as §1

serum total VB12 change (high-fat diet (HFD) mice [2]): significantly decreased
SMILES: COc1ccc2c(c1OC)CN1CCc3cc4c(cc3C1=C2)OCO4 [DHB, dihydroberberine]
blood glucose level lower than control group in insulin tolerance test (high-fat diet (HFD) mice [1]): about 15% | HbA1c level decreased compared to the control group (high-fat diet (HFD) mice [3]): about 20% | blood glucose level decreased compared to the control group (high-fat diet (HFD) mice [4]): about 35%

From patent publication US20230067847A1, “COMBINATION OF BERBERINE AND DERIVATIVES THEREOF, AND VITAMIN B12” (NANJING NUTRABUILDING BIO-TECH CO., LTD., priority 2021, published 2023)
